Legend:
[1] = biological target: T1, RpfC^FL liposome (Xanthomonas campestris pv. campestris, UniProt P0C0F7); experiment: Limited proteolysis of RpfC^FL liposome; conditions: with AMP-PNP, vs DSF minus control
T1 construct: His6 (C); made in house; host or cells: E. coli BL21(DE3), pET30a
Protocol: The limited proteolysis experiments were performed at 0°C with 1.4 μg RpfC liposomes in a reaction buffer containing 50 mM Tris-HCl, pH 8.0, 100 mM NaCl, 2 mM DTT and 1.13 mM AMP-PNP. Trypsin was added to a final concentration of 0.018 μg μl^-1 to degrade RpfC liposome. Aliquot was removed at indicated time and the reaction was stopped by 5 × SDS loading buffer (250 mM Tris-HCl pH 6.8, 10% (w/v) SDS, 0.5% (w/v) bromophenol blue, 50% (v/v) glycerol, 25 mM PMSF). Samples were separated by 12% SDS-PAGE gel and protein bands were detected by silver staining. The sequence of the different peptide fragments were determined by a nanoLC-MS/MS with Orbitrap Fusion system (Thermo scientific, USA).

[2] = biological target: T2, RpfC^Q22A liposome (Xanthomonas campestris pv. campestris, UniProt P0C0F7, Q22A); experiment: MST binding, RpfC^Q22A liposome
T2 construct: His6 (C); made in house; host or cells: E. coli BL21(DE3), pET30a
Protocol: (§1) Binding reactions of RpfC to DSF was measured by microscale thermophoresis in a Monolith NT.Label Free (Nano Temper Technologies GMBH, Germany) instrument which detects changes in size, charge and conformation induced by binding. RpfC liposomes were collected with centrifugation of 200,000 g for 40 min and resuspended in MST buffer (50 mM Tris-HCl pH 7.8, 150 mM NaCl, 10 mM MgCl2, 0.05% Tween-20) to an approximate concentration of 0.1 μM. A range of concentration of DSF (range from 0.06 μM to 2 mM) in assay buffer (50 mM Tris-HCl pH 7.8, 150 mM NaCl, 10 mM MgCl2, 0.05% Tween-20, 5% methanol) was incubated with RpfC liposomes (1:1, v/v) for 10 minutes. The sample was loaded into the NT.Label Free standard capillaries and measured with 20% LED power and 40% MST power. Purified sensor protein was dissolved in reaction buffer (50 mM Tris-HCl pH 8.5, 150 mM NaCl, 0.1% Tween-20) to a final concentration as 8 μM. Dilute DSF from 0.0122 μM to 25 μM in buffer (50 mM Tris-HCl pH 8.5, 150 mM NaCl, 0.25‰ methanol). Different concentrations of DSF and sensor protein (1:1, v/v) were mixed and loaded into NT.Label Free standard capillaries. […]
(§2) Supplementary file ppat.1006304.s004.pdf: S4 Fig Substitution of essential amino acid impact DSF-RpfC interaction. Microscale thermophoresis (MST) was used to quantify the binding affinity between DSF and RpfC derivates. […]

[3] = biological target: T3, RpfC^S18A liposome (Xanthomonas campestris pv. campestris, UniProt P0C0F7, S18A); experiment: MST binding, RpfC^S18A liposome
T3 construct: His6 (C); made in house; host or cells: E. coli BL21(DE3), pET30a
Protocol: as §1, §2

[4] = biological target: T4, RpfC sensor peptide (Xanthomonas campestris pv. campestris, UniProt P0C0F7); experiment: Circular dichroism of RpfC sensor peptide; conditions: sensor 60 μM; DSF 0, 100, 500 μM
T4 construct: GST (N, cleaved yes); made in house; host or cells: E. coli BL21 (DE3), pGEX6P-1
Protocol: To determine if DSF has impact on RpfC sensor conformation change, CD analysis was carried out on a Chirascan CD Spectrometer (Applied Photophysics, UK), with 10 mm pathlength and 1 nm bandwidth. Sensor protein with GST tag cleaved off was dissolved in buffer (50 mM Tris-HCl pH 8.5, 150 mM NaCl) to 60 μM. Dilute DSF with Sensor protein to a series of concentration (0 μM, 100 μM and 500 μM). CD wavelength scans were collected between 200 nm-260 nm. The spectra data were analyzed on the http://dichroweb.cryst.bbk.ac.uk website with Contin-LL method.

[5] = biological target: T2, RpfC^Q22A liposome; experiment: Autokinase assay, RpfC^Q22A liposome; format: biochemical; conditions: 0.75 μM DSF, 5 min
Protocol: (§3) in vitro phosphorylation assay was conducted as described in our previous study. For autophosphoylation, RpfC liposomes or IMV were incubated with 100 μM ATP containing 10 μCi [γ-^32P]ATP (PerkinElmer, USA) in autophosphorylation buffer (50 mM Tris-HCl, pH 7.8, 2 mM DTT, 25 mM NaCl, 25 mM KCl, 5 mM MgCl2) for indicated time (28°C). If necessary, DSF was added into the mixture 20 min before addition of ATP. The reaction was stopped with 6 × SDS-PAGE loading buffer. The phosphorylated proteins were separated by 12% SDS-PAGE. After SDS-PAGE electrophoresis, gels were separated from back glass plate and placed in a Ziploc bag and exposed to a phosphor screen for 1 hour. The screen was scanned with a PhosphorImage system (Amersham Biosciences, USA) at […]. If necessary, signal intensity was measured by Quantity One software (Bio-Rad).

[6] = biological target: T5, RpfC^Δsensor liposome (Xanthomonas campestris pv. campestris, UniProt P0C0F7); experiment: Thermal shift assay, RpfC^Δsensor liposome; format: binding
T5 construct: His6 (C); made in house; host or cells: E. coli BL21(DE3), pET30a
Protocol: DSF was mixed with purified proteins or liposomes of RpfC to a final concentration of 0 μM, 5 μM or 10 μM respectively in the reaction buffer (50 mM Tris-HCl pH 7.8, 25 mM NaCl, 100 mM KCl). The protein concentration was 0.5–1 μg/μl. The TSA was performed by a Prometheus NT.48 nanoDSF device with a temperature gradient of 20–95°C, 1°C /min. Unfolding transition points were determined according to the changes of intrinsic tryptophan fluorescence at 330 nm, 350 nm. The ratio of fluorescence and the melting temperature (Tm) were calculated by the NT Melting Control software (NanoTemper Technologies).

[7] = tested on: cell-cell communication; parameters: method as in PMID 14731288; conditions: cited from earlier work
[8] = biological target: T4, RpfC sensor peptide; experiment: MST binding, purified RpfC sensor peptide; conditions: sensor peptide with GST tag removed, read-out: dissociation constant (Kd)
Protocol: RpfC sensor fused with a GST tag was obtained and purified according to the GST Gene Fusion System Handbook (Amersham Biosciences) with GST Resin (TRANS). In order to acquire sensor peptide with GST tag cleaved off, on-column cleavage procedure was conducted. In brief, lysate of recombinant E.coli BL21 (DE3) strain was mixed with pre-equilibrated GST Resin with PBS buffer for ten minutes before loading into column. The column was washed by PBS buffer and resuspened with PreScission buffer (50 mM Tris-HCl, pH 8.5, 150 mM NaCl). Following the injection of 2 units PreScission Protease (GenScript), the column was sealed and placed on a rotator at 4°C. After 10 h of digestion, the flow fractions were collected, which contains preliminary sensor peptide with the GST tag being moved. If necessary, the sensor peptide was purified again by the GST Resin to get rid of uncleaved sensor-GST fusion protein. […]
Binding reactions of RpfC to DSF was measured by microscale thermophoresis in a Monolith NT.Label Free (Nano Temper Technologies GMBH, Germany) instrument which detects changes in size, charge and conformation induced by binding. […] The sample was loaded into the NT.Label Free standard capillaries and measured with 20% LED power and 40% MST power. […]

[9] = biological target: T5, RpfC^Δsensor liposome; experiment: MST binding, RpfC^Δsensor liposome
Protocol: (§4) Binding reactions of RpfC to DSF was measured by microscale thermophoresis in a Monolith NT.Label Free (Nano Temper Technologies GMBH, Germany) instrument which detects changes in size, charge and conformation induced by binding. RpfC liposomes were collected with centrifugation of 200,000 g for 40 min and resuspended in MST buffer (50 mM Tris-HCl pH 7.8, 150 mM NaCl, 10 mM MgCl2, 0.05% Tween-20) to an approximate concentration of 0.1 μM. A range of concentration of DSF (range from 0.06 μM to 2 mM) in assay buffer (50 mM Tris-HCl pH 7.8, 150 mM NaCl, 10 mM MgCl2, 0.05% Tween-20, 5% methanol) was incubated with RpfC liposomes (1:1, v/v) for 10 minutes. The sample was loaded into the NT.Label Free standard capillaries and measured with 20% LED power and 40% MST power. Purified sensor protein was dissolved in reaction buffer (50 mM Tris-HCl pH 8.5, 150 mM NaCl, 0.1% Tween-20) to a final concentration as 8 μM. Dilute DSF from 0.0122 μM to 25 μM in buffer (50 mM Tris-HCl pH 8.5, 150 mM NaCl, 0.25‰ methanol). Different concentrations of DSF and sensor protein (1:1, v/v) were mixed and loaded into NT.Label Free standard capillaries. The label free MST assay was performed with 20% LED power and 40% MST power. KD Fit function of the Nano Temper Analysis Software Version 1.5.41 was used to fit curve and calculate the value of dissociation constant (Kd).

[10] = biological target: RpfS; parameters: method as in PMID 24617591, PMID 23815566; conditions: by ITC; read-out: binding affinity (Kd) DSF-RpfS; cited from earlier work
[11] = biological target: T6, RpfC^FL (Xanthomonas campestris pv. campestris, UniProt P0C0F7); experiment: Dose-response of DSF on RpfC autokinase activity; format: biochemical
T6 construct: His6 (C); made in house; host or cells: E. coli BL21(DE3), pET30a
Protocol: as §3

[12] = biological target: T7, RpfC^S18T liposome (Xanthomonas campestris pv. campestris, UniProt P0C0F7, S18T); experiment: Autokinase assay, RpfC^S18T liposome; format: biochemical; conditions: 0.75 μM DSF, 5 min; increase slightly lower than WT RpfC
T7 construct: His6 (C); made in house; host or cells: E. coli BL21(DE3), pET30a
Protocol: as §3

[13] = biological target: T8, RpfC^D17A liposome (Xanthomonas campestris pv. campestris, UniProt P0C0F7, D17A); experiment: MST binding, RpfC^D17A liposome
T8 construct: His6 (C); made in house; host or cells: E. coli BL21(DE3), pET30a
Protocol: as §1, §2

[14] = biological target: T1, RpfC^FL liposome; experiment: Microscale thermophoresis (MST) binding, RpfC^FL liposome; conditions: RpfC liposome 0.1 μM, read-out: dissociation constant (Kd)
Protocol: as §4

CC(C)CCCCCCC/C=C\C(=O)O [DSF, cis-11-methyl-dodecenoic acid]
DHp-CA fragment (30 kDa) after trypsin limited proteolysis [1]: large accumulation
binding between DSF and RpfC liposome [2]: completely eliminated the binding
binding between DSF and RpfC liposome [3]: completely eliminated the binding
ratio of strand in secondary structure [4]: gradually elevated
RpfC-P levels under DSF treatment [5]: significant decrease
thermal shift after DSF stimulation [6]: no thermal shift was detected
minimal bioactive concentration of DSF required for eliciting cell-cell communication [7]: approximately 0.5 μM
Kd [8]: 140 ± 40 nM
binding to DSF [9]: didn’t bind
Kd [10]: 1400 nM
DSF concentration at which RpfC^FL-P levels tapered off (saturation) [11]: ~20 µM
DSF concentration sufficient to elicit a detectable increase in RpfC^FL-P level [11]: 0.5 µM
autophosphorylation level under DSF stimulation [12]: increased
binding between DSF and RpfC liposome [13]: completely eliminated the binding
Kd [14]: 820 ± 120 nM

— paper PMC5391125, “Fatty acid DSF binds and allosterically activates histidine kinase RpfC of phytopathogenic bacterium Xanthomonas campestris pv. campestris to regulate quorum-sensing and virulence” (PLoS Pathogens, 2017)
